Reference: PMC6934184, “Selective DNA-PKcs inhibition extends the therapeutic index of localized radiotherapy and chemotherapy” (The Journal of Clinical Investigation, 2019)

Test system: Huh7
Test: clonogenic survival with doxorubicin
Format: cell-based, human
Conditions: NU5455 1 μM, 24 hours

**Q.** CN(C(=O)CN1CCOCC1)c1ccc2sc3c(-c4cccc5c(=O)cc(N6CC7CCC(C6)O7)oc45)cccc3c2c1 [NU5455] was tested. Which “Fold potentiation of doxorubicin (LD80, SER80)” value did it give?
**A.** The value was 3.5 fold.
